System: NOMO1
Assay: cell viability relative to DMSO control; higher = less cytotoxic
Settings: 48 h
Outline: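 Viability values are per-plate percentages of DMSO wells, with background from cell-free wells. Library compounds in DMSO were pin-dosed, in an 11-point threefold series from 47 μM to 0.79 nM, onto NOMO1 or SEM (500 cells/well) or P12-Ichikawa (1000 cells/well) leukemia cells in 1536-well plates (5 μl). Those cells had been adapted for at least four passages in each medium, and CellTiter-Glo One luminescence was read after 48 h at 37°C.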

[1] = HPLM + 10% dialyzed FBS, 0.000781 µM
[2] = HPLM + 10% dialyzed FBS, 0.00234 µM
[3] = HPLM + 10% dialyzed FBS, 0.00702 µM
[4] = HPLM + 10% dialyzed FBS, 0.0211 µM
[5] = HPLM + 10% dialyzed FBS, 0.0632 µM
[6] = HPLM + 10% dialyzed FBS, 0.19 µM
[7] = HPLM + 10% dialyzed FBS, 0.569 µM
[8] = HPLM + 10% dialyzed FBS, 1.71 µM
[9] = HPLM + 10% dialyzed FBS, 5.12 µM
[10] = HPLM + 10% dialyzed FBS, 15.4 µM
[11] = HPLM + 10% dialyzed FBS, 46.1 µM
[12] = RPMI 5 mM glucose + 10% FBS, 0.000781 µM
[13] = RPMI 5 mM glucose + 10% FBS, 0.00234 µM
[14] = RPMI 5 mM glucose + 10% FBS, 0.00702 µM
[15] = RPMI 5 mM glucose + 10% FBS, 0.0211 µM
[16] = RPMI 5 mM glucose + 10% FBS, 0.0632 µM
[17] = RPMI 5 mM glucose + 10% FBS, 0.19 µM
[18] = RPMI 5 mM glucose + 10% FBS, 0.569 µM
[19] = RPMI 5 mM glucose + 10% FBS, 1.71 µM
[20] = RPMI 5 mM glucose + 10% FBS, 5.12 µM
[21] = RPMI 5 mM glucose + 10% FBS, 15.4 µM
[22] = RPMI 5 mM glucose + 10% FBS, 46.1 µM
[23] = RPMI 5 mM glucose + 10% dialyzed FBS, 0.000781 µM
[24] = RPMI 5 mM glucose + 10% dialyzed FBS, 0.00234 µM
[25] = RPMI 5 mM glucose + 10% dialyzed FBS, 0.00702 µM
[26] = RPMI 5 mM glucose + 10% dialyzed FBS, 0.0211 µM
[27] = RPMI 5 mM glucose + 10% dialyzed FBS, 0.0632 µM
[28] = RPMI 5 mM glucose + 10% dialyzed FBS, 0.19 µM
[29] = RPMI 5 mM glucose + 10% dialyzed FBS, 0.569 µM
[30] = RPMI 5 mM glucose + 10% dialyzed FBS, 1.71 µM
[31] = RPMI 5 mM glucose + 10% dialyzed FBS, 5.12 µM
[32] = RPMI 5 mM glucose + 10% dialyzed FBS, 15.4 µM
[33] = RPMI 5 mM glucose + 10% dialyzed FBS, 46.1 µM

## COc1cc2c(Oc3ccc(NC(=O)C4(C(=O)Nc5ccc(F)cc5)CC4)cc3F)ccnc2cc1OCCCN1CCOCC1
[1]
  cell viability: 74.7%
[2]
  cell viability: 83.2%
[3]
  cell viability: 79.3%
[4]
  cell viability: 92%
[5]
  cell viability: 89.5%
[6]
  cell viability: 83.1%
[7]
  cell viability: 84.3%
[8]
  cell viability: 61%
[9]
  cell viability: 63.4%
[10]
  cell viability: 28.5%
[11]
  cell viability: 4.74%
[12]
  cell viability: 80.8%
[13]
  cell viability: 86.3%
[14]
  cell viability: 91.7%
[15]
  cell viability: 94.6%
[16]
  cell viability: 85.8%
[17]
  cell viability: 85.1%
[18]
  cell viability: 86.8%
[19]
  cell viability: 72.8%
[20]
  cell viability: 41%
[21]
  cell viability: 36.9%
[22]
  cell viability: 4.62%
[23]
  cell viability: 81.2%
[24]
  cell viability: 75.3%
[25]
  cell viability: 84.8%
[26]
  cell viability: 93.8%
[27]
  cell viability: 85.6%
[28]
  cell viability: 72.1%
[29]
  cell viability: 80.9%
[30]
  cell viability: 46.5%
[31]
  cell viability: 43.3%
[32]
  cell viability: 29.6%
[33]
  cell viability: 5.96%

## CC1(C)CCC(=C(CN2CCN(CC2)C3=CC=C(C=C3)C(=O)N[S+]([O-])(=O)C4=CC(=C(N[C@H](CCN5CCOCC5)CSC6=CC=CC=C6)C=C4)[S+]([O-])(=O)C(F)(F)F)\C1)/C7=CC=C(Cl)C=C7
[1]
  cell viability: 124%
[2]
  cell viability: 132%
[3]
  cell viability: 123%
[4]
  cell viability: 128%
[5]
  cell viability: 116%
[6]
  cell viability: 112%
[7]
  cell viability: 96.7%
[8]
  cell viability: 57.1%
[9]
  cell viability: 49.2%
[10]
  cell viability: 39.2%
[11]
  cell viability: 43.2%
[23]
  cell viability: 116%
[24]
  cell viability: 125%
[25]
  cell viability: 118%
[26]
  cell viability: 117%
[27]
  cell viability: 90.1%
[28]
  cell viability: 78.9%
[29]
  cell viability: 61.7%
[30]
  cell viability: 23.9%
[31]
  cell viability: 24.7%
[32]
  cell viability: 29.9%
[33]
  cell viability: 22.5%

## CN(C)CCc1c[nH]c2ccc(C[C@H]3COC(=O)N3)cc12
[1]
  cell viability: 104%
[2]
  cell viability: 119%
[3]
  cell viability: 106%
[4]
  cell viability: 113%
[5]
  cell viability: 106%
[6]
  cell viability: 121%
[7]
  cell viability: 127%
[8]
  cell viability: 111%
[9]
  cell viability: 104%
[10]
  cell viability: 48.1%
[11]
  cell viability: 9.77%
[12]
  cell viability: 104%
[13]
  cell viability: 98.6%
[14]
  cell viability: 106%
[15]
  cell viability: 101%
[16]
  cell viability: 112%
[17]
  cell viability: 97.3%
[18]
  cell viability: 110%
[19]
  cell viability: 106%
[20]
  cell viability: 99.9%
[21]
  cell viability: 59.2%
[22]
  cell viability: 12.9%
[23]
  cell viability: 96.4%
[24]
  cell viability: 108%
[25]
  cell viability: 106%
[26]
  cell viability: 111%
[27]
  cell viability: 116%
[28]
  cell viability: 114%
[29]
  cell viability: 108%
[30]
  cell viability: 102%
[31]
  cell viability: 109%
[32]
  cell viability: 87.8%
[33]
  cell viability: 20.1%

## [NH2][Pt]([NH2])([Cl])[Cl]
[1]
  cell viability: 94.8%
[2]
  cell viability: 110%
[3]
  cell viability: 91.2%
[4]
  cell viability: 103%
[5]
  cell viability: 121%
[6]
  cell viability: 110%
[7]
  cell viability: 93.8%
[8]
  cell viability: 99.4%
[9]
  cell viability: 95.5%
[10]
  cell viability: 90.5%
[11]
  cell viability: 94%
[12]
  cell viability: 83.7%
[13]
  cell viability: 92.2%
[14]
  cell viability: 79.8%
[15]
  cell viability: 99.6%
[16]
  cell viability: 89.7%
[17]
  cell viability: 103%
[18]
  cell viability: 85.9%
[19]
  cell viability: 88.1%
[20]
  cell viability: 84.6%
[21]
  cell viability: 82.4%
[22]
  cell viability: 81.3%
[23]
  cell viability: 90%
[24]
  cell viability: 90.6%
[25]
  cell viability: 88%
[26]
  cell viability: 85.8%
[27]
  cell viability: 97.4%
[28]
  cell viability: 94.7%
[29]
  cell viability: 96.8%
[30]
  cell viability: 96%
[31]
  cell viability: 94.9%
[32]
  cell viability: 89.3%
[33]
  cell viability: 101%

From the supplement of paper PMC11451515
